Data: the CheMixHub viscosity set
“And” between values parts separate entries of the source, which are not always exact repeats. Equal values may be shown once.

Assays:
[1] = xn = mol fraction of the nth substance listed

C[N+](C)(C)CCC[N+]1(C)CCCCC1.N#C[N-]C#N.N#C[N-]C#N
100 kPa
Conditions | viscosity
293.15 K | 4503 mPa·s and 4503 mPa·s
298.15 K | 2819 mPa·s
303.15 K | 1837 mPa·s and 1837 mPa·s
308.15 K | 1224 mPa·s
313.15 K | 856.1 mPa·s and 856.1 mPa·s
318.15 K | 618.5 mPa·s
323.15 K | 460.1 mPa·s and 460.1 mPa·s

CCCC[P+](C)(CCCC)CCCC.COS(=O)(=O)[O-]
viscosity
Conditions | 293.15 K | 298.15 K | 303.15 K | 308.15 K | 313.15 K | 318.15 K | 323.15 K
100 kPa | 729.1 mPa·s and 729.1 mPa·s | 521.3 mPa·s and 521.3 mPa·s | 381.4 mPa·s and 381.4 mPa·s | 286.1 mPa·s and 286.1 mPa·s | 217 mPa·s and 217 mPa·s | 169.1 mPa·s and 169.1 mPa·s | 133.4 mPa·s and 133.4 mPa·s
101 kPa | 729.1 mPa·s | 521.3 mPa·s | 381.4 mPa·s | 286.1 mPa·s | 217 mPa·s | 169.1 mPa·s | 133.4 mPa·s

CCCC[n+]1ccn(C)c1.O=C([O-])C(F)(F)F
101 kPa
Conditions | viscosity [mPa·s]
298.15 K | 52.9
303.15 K | 58
313.15 K | 37.83
323.15 K | 26.11

FC1CC(F)(F)C(F)(F)C1(F)F (stereo not given)
101 kPa
Conditions | viscosity [mPa·s]
298.15 K | 1.65
313.15 K | 1.28
323.15 K | 1.08

C=C(C)C(=O)OC
viscosity
Conditions | 298.15 K | 303.15 K | 308.15 K | 313.15 K
101 kPa | 0.5625 mPa·s | 0.5142 mPa·s and 0.524 mPa·s | 0.4932 mPa·s | 0.4684 mPa·s
101.3 kPa | 0.584 mPa·s | – | 0.492 mPa·s | –

CC1(c2ccccc2)OC1C#N (stereo not given)
101 kPa
Conditions | viscosity [mPa·s]
293.15 K | 11.77
298.15 K | 9.155
303.15 K | 7.386
313.15 K | 5.17
323.15 K | 3.522

ClCCCCCCCl
101 kPa
Conditions | viscosity
308.15 K | 1.616 mPa·s
313.15 K | 1.533 mPa·s and 1.534 mPa·s
318.15 K | 1.387 mPa·s

CCOC(C)OCC
101 kPa
Conditions | viscosity [mPa·s]
303.1 K | 0.404
313.1 K | 0.364

ClCCCCCCCl + C1CCCCC1
viscosity [mPa·s], [1], 101 kPa
Conditions | x1 = 0.07055 | x1 = 0.1468 | x1 = 0.2554 | x1 = 0.3491 | x1 = 0.4438 | x1 = 0.5446 | x1 = 0.6382 | x1 = 0.7449 | x1 = 0.8743
308.15 K | 0.796 | 0.835 | 0.893 | 0.948 | 1.022 | 1.113 | 1.206 | 1.322 | 1.467
313.15 K | 0.721 | 0.759 | 0.818 | 0.873 | 0.947 | 1.036 | 1.126 | 1.246 | 1.387
318.15 K | 0.681 | 0.711 | 0.76 | 0.804 | 0.865 | 0.942 | 1.027 | 1.133 | 1.259

CCCCCCCCCCCC(=O)[O-].[Na+] + CCCCCCCCCC(=O)O
[1], 101 kPa, x1 = 0.2
Conditions | viscosity [mPa·s]
293.15 K | 76.59
298.15 K | 60.48
303.15 K | 48.43
308.15 K | 39.29
313.15 K | 32.27
318.15 K | 26.79
323.15 K | 22.48

CC(O)CNCC(C)O (stereo not given) + O
viscosity [mPa·s], [1]
Conditions | 293.15 K | 298.15 K | 303.15 K | 308.15 K | 313.15 K | 318.15 K | 323.15 K
101 kPa, x1 = 0.023 | – | – | – | – | – | 1.095 | –
101 kPa, x1 = 0.03 | – | – | – | 1.695 | – | – | –
101.3 kPa, x1 = 0.0071 | 1.261 | 1.097 | 0.958 | 0.834 | 0.738 | – | 0.597
101.3 kPa, x1 = 0.0148 | 1.61 | 1.37 | 1.211 | 1.046 | 0.914 | – | 0.775
101.3 kPa, x1 = 0.0329 | 2.803 | 2.363 | 2.08 | 1.803 | 1.54 | – | 1.2

C[n+]1ccn(CC(=O)O)c1.[Cl-] + O
[1], 298.15 K, 101 kPa
Conditions | viscosity [mPa·s]
x1 = 0.0009 | 0.911
x1 = 0.001 | 0.915
x1 = 0.002 | 0.917

ClCCCCCCCl + Cc1ccc(C)cc1
viscosity [mPa·s], [1], 101 kPa
Conditions | x1 = 0.08955 | x1 = 0.1825 | x1 = 0.2818 | x1 = 0.3684 | x1 = 0.4454 | x1 = 0.5735 | x1 = 0.6793 | x1 = 0.7843 | x1 = 0.8888
308.15 K | 0.586 | 0.645 | 0.722 | 0.802 | 0.878 | 1.027 | 1.154 | 1.307 | 1.45
313.15 K | 0.558 | 0.621 | 0.686 | 0.756 | 0.83 | 0.972 | 1.095 | 1.242 | 1.378
318.15 K | 0.534 | 0.595 | 0.653 | 0.714 | 0.78 | 0.899 | 1.014 | 1.134 | 1.267

C=C(C)C(=O)OC + CCCCCO
viscosity [mPa·s], [1], 101.3 kPa
Conditions | 298.15 K | 308.15 K
x1 = 0.0449 | 3.018 | 2.317
x1 = 0.1463 | 2.195 | 1.733
x1 = 0.2463 | 1.658 | 1.34
x1 = 0.3476 | 1.29 | 1.064
x1 = 0.4311 | 1.077 | 0.9
x1 = 0.5019 | 0.941 | 0.793
x1 = 0.5439 | 0.876 | 0.74
x1 = 0.6459 | 0.753 | 0.641
x1 = 0.7431 | 0.674 | 0.575
x1 = 0.8477 | 0.619 | 0.527
x1 = 0.9445 | 0.591 | 0.501
